Reference: US12310975B2, “Modulators of BCL6 proteolysis and associated methods of use” (Arvinas Operations, Inc., priority 2019, dated 2025)
Where two headings read alike, the source gives them in different places.

Molecular target: BCL6 (Homo sapiens (Human), UniProt P41182)
Assay: Immunofluorescence high content imaging of BCL6 degradation in T47D cells
Assay type: cell-based
Conditions: for DC50: class symbols A-D, read-out: EC50 (nM)*
Method in brief: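 BCL6 loss was quantified by high-content imaging (10×, 4 fields/well) after PFA fixation and anti-BCL6/Alexa-488 staining with Hoechst nuclear and CellMask counterstains. Compounds were applied for 3 days to T47D breast cancer cells in RPMI-10% FBS, 11 points, 3-fold steps, top 0.1 or 1 μM.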

Row | SMILES | Dmax (T47D cells) | IC50 (T47D cells) | also measured
1 | CNC(=O)COc1cc2cc(Nc3nc(N4CCC(OCCOCCOc5ccc6c(c5)CN(C5CCC(=O)NC5=O)C6=O)CC4)ncc3Cl)ccc2n(C)c1=O (centres unmarked) [compound 61, 2-((6-((5-chloro-2-(4-(2-(2-((2-(2,6-dioxopiperidin-3-yl)-1-oxoisoindolin-5-yl)oxy)ethoxy)ethoxy)piperidin-1-yl)pyrimidin-4-yl)amino)-1-methyl-2-oxo-1,2-dihydroquinolin-3-yl)oxy)-N-methylacetamide] | – | – | DC50: 10 to 50 nM
2 | CNC(=O)COc1cc2cc(Nc3nc(N4CCC(OC5CCN(c6cccc7c6C(=O)N(C6CCC(=O)NC6=O)C7=O)CC5)CC4)ncc3Cl)ccc2n(C(C)C)c1=O (centres unmarked) [compound 293, 2-{[6-({5-chloro-2-[4-({1-[2-(2,6-dioxopiperidin-3-yl)-1,3-dioxo-2,3-dihydro-1H-isoindol-4-yl]piperidin-4-yl}oxy)piperidin-1-yl]pyrimidin-4-yl}amino)-2-oxo-1-(propan-2-yl)-1,2-dihydroquinolin-3-yl]oxy}-N-methylacetamide] | – | – | IC50: 10 to 50 nM; Dmax (T47D): 50 to 70%
3 | CC[C@H]1CN(c2ncc(Cl)c(Nc3ccc4c(c3)cc(OCC(=O)NC)c(=O)n4C(C)C)n2)C[C@@H](COc2ccc3c(c2)C(=O)N(C2CCC(=O)NC2=O)C3=O)O1 (stereo partly drawn) [compound 394, 2-{[6-({5-chloro-2-[(2S,6S)-2-({[2-(2,6-dioxopiperidin-3-yl)-1,3-dioxo-2,3-dihydro-1H-isoindol-5-yl]oxy}methyl)-6-ethylmorpholin-4-yl]pyrimidin-4-yl}amino)-2-oxo-1-(propan-2-yl)-1,2-dihydroquinolin-3-yl]oxy}-N-methylacetamide] | 50 to 70% | < 10 nM | –
4 | Cn1c(=O)c(N2CCC2=O)cc2cc(Nc3nc(N4CCN(CC5CCN(c6ccc7c(c6)C(=O)N(C6CCC(=O)NC6=O)C7=O)CC5)CC4)ncc3Cl)ccc21 (centres unmarked) [compound 249, 5-(4-((4-(5-chloro-4-((1-methyl-2-oxo-3-(2-oxoazetidin-1-yl)-1,2-dihydroquinolin-6-yl)amino)pyrimidin-2-yl)piperazin-1-yl)methyl)piperidin-1-yl)-2-(2,6-dioxopiperidin-3-yl)isoindoline-1,3-dione] | – | – | IC50: ≥ 100 nM
5 | CCCN(C1CCN(c2ccc3c(c2)C(=O)N(C2CCC(=O)NC2=O)C3=O)CC1)C1CCN(c2ncc(Cl)c(Nc3ccc4c(c3)cc(OCC(=O)NC)c(=O)n4C)n2)CC1 (centres unmarked) [compound 327, 2-{[6-({5-chloro-2-[4-({1-[2-(2,6-dioxopiperidin-3-yl)-1,3-dioxo-2,3-dihydro-1H-isoindol-5-yl]piperidin-4-yl}(propyl)amino)piperidin-1-yl]pyrimidin-4-yl}amino)-1-methyl-2-oxo-1,2-dihydroquinolin-3-yl]oxy}-N-methylacetamide] | 50 to 70% | 10 to 50 nM | –
6 | CNC(=O)COc1cc2cc(Nc3nc(N4C[C@@H](C)N(CC5CCN(c6cccc7c6C(=O)N(C6CCC(=O)NC6=O)C7=O)CC5)[C@@H](C)C4)ncc3Cl)ccc2n(C(C)C)c1=O (stereo partly drawn) [compound 387, 2-{[6-({5-chloro-2-[(3R,5S)-4-({1-[2-(2,6-dioxopiperidin-3-yl)-1,3-dioxo-2,3-dihydro-1H-isoindol-4-yl]piperidin-4-yl}methyl)-3,5-dimethylpiperazin-1-yl]pyrimidin-4-yl}amino)-2-oxo-1-(propan-2-yl)-1,2-dihydroquinolin-3-yl]oxy}-N-methylacetamide] | 50 to 70% | < 10 nM | –
7 | CN1C(=O)CCc2cc(Nc3cc(OC4CCN(C(=O)COCCOc5ccc6c(c5)C(=O)N(C5CCC(=O)NC5=O)C6=O)CC4)c([N+](=O)[O-])cc3Cl)ccc21 (centres unmarked) [compound 76, 5-(2-(2-(4-(4-chloro-5-((1-methyl-2-oxo-1,2,3,4-tetrahydroquinolin-6-yl)amino)-2-nitrophenoxy)piperidin-1-yl)-2-oxoethoxy)ethoxy)-2-(2,6-dioxopiperidin-3-yl)isoindoline-1,3-dione] | – | – | DC50: > 100 nM
8 | CNC(=O)CNc1cc2cc(Nc3nc(N4CCN(CC5CCN(c6ccc7c(c6)C(=O)N(C6CCC(=O)NC6=O)C7=O)CC5)CC4)ncc3Cl)ccc2n(C)c1=O (centres unmarked) [compound 262, 2-((6-((5-chloro-2-(4-((1-(2-(2,6-dioxopiperidin-3-yl)-1,3-dioxoisoindolin-5-yl)piperidin-4-yl)methyl)piperazin-1-yl)pyrimidin-4-yl)amino)-1-methyl-2-oxo-1,2-dihydroquinolin-3-yl)amino)-N-methylacetamide] | – | – | IC50: < 10 nM; Dmax (T47D): ≥ 70%
9 | CC(=O)COc1cc2cc(Nc3nc(N4CCN(C(C)(C)C5CCN(c6ccc7c(c6)C(=O)N(C6CCC(=O)NC6=O)C7=O)CC5)CC4)ncc3Cl)ccc2n(C)c1=O (centres unmarked) [compound 257, 5-(4-(2-(4-(5-chloro-4-((1-methyl-2-oxo-3-(2-oxopropoxy)-1,2-dihydroquinolin-6-yl)amino)pyrimidin-2-yl)piperazin-1-yl)propan-2-yl)piperidin-1-yl)-2-(2,6-dioxopiperidin-3-yl)isoindoline-1,3-dione] | – | – | IC50: 10 to 50 nM; Dmax (T47D): ≥ 70%
10 | CNC(=O)COc1cc2cc(Nc3nc(N4CCC(CN5[C@H](C)CN(c6cccc(C(=O)NC7CCC(=O)NC7=O)c6F)C[C@@H]5C)CC4)ncc3Cl)ccc2n(C)c1=O (mixture of isomers) [compound 370, rac-3-[(3R,5S)-4-({1-[5-chloro-4-({1-methyl-3-[(methylcarbamoyl)methoxy]-2-oxo-1,2-dihydroquinolin-6-yl}amino)pyrimidin-2-yl]piperidin-4-yl}methyl)-3,5-dimethylpiperazin-1-yl]-N-(2,6-dioxopiperidin-3-yl)-2-fluorobenzamide] | 50 to 70% | 10 to 50 nM | –
11 | CNC(=O)COc1cc2cc(Nc3nc(N4CCC(CN5CCC(c6cccc(N7CCC(=O)NC7=O)c6)CC5)CC4)ncc3Cl)ccc2n(C(C)C)c1=O [compound 416, 2-{[6-({5-chloro-2-[4-({4-[3-(2,4-dioxo-1,3-diazinan-1-yl)phenyl]piperidin-1-yl}methyl)piperidin-1-yl]pyrimidin-4-yl}amino)-2-oxo-1-(propan-2-yl)-1,2-dihydroquinolin-3-yl]oxy}-N-methylacetamide] | – | ≥ 100 nM | –
12 | CCn1c(=O)c(OCC(=O)NC)cc2cc(Nc3nc(N4CCN(C(C)(C)C5CCN(c6cccc7c6C(=O)N(C6CCC(=O)NC6=O)C7=O)CC5)CC4)ncc3Cl)ccc21 (centres unmarked) [compound 312, 2-{[6-({5-chloro-2-[4-(2-{1-[2-(2,6-dioxopiperidin-3-yl)-1,3-dioxo-2,3-dihydro-1H-isoindol-4-yl]piperidin-4-yl}propan-2-yl)piperazin-1-yl]pyrimidin-4-yl}amino)-1-ethyl-2-oxo-1,2-dihydroquinolin-3-yl]oxy}-N-methylacetamide] | – | – | IC50: < 10 nM; Dmax (T47D): ≥ 70%
13 | CCn1c(=O)c(OCC(=O)NC)cc2cc(Nc3nc(N4CCC(COC5CCN(c6ccc7c(c6)C(=O)N(C6CCC(=O)NC6=O)C7=O)CC5)CC4)ncc3Cl)ccc21 (centres unmarked) [compound 331, 2-({6-[(5-chloro-2-{4-[({1-[2-(2,6-dioxopiperidin-3-yl)-1,3-dioxo-2,3-dihydro-1H-isoindol-5-yl]piperidin-4-yl}oxy)methyl]piperidin-1-yl}pyrimidin-4-yl)amino]-1-ethyl-2-oxo-1,2-dihydroquinolin-3-yl}oxy)-N-methylacetamide] | < 50% | < 10 nM | –
14 | CNC(=O)COc1cc2cc(Nc3nc(N4CCC(c5cn(CCOCCOCCOCC(=O)N[C@H](C(=O)N6C[C@H](O)C[C@H]6C(=O)N[C@@H](C)c6ccc(-c7scnc7C)cc6)C(C)(C)C)nn5)CC4)ncc3Cl)ccc2n(C)c1=O [compound 116, (2S,4R)-1-((S)-2-(tert-butyl)-14-(4-(1-(5-chloro-4-((1-methyl-3-(2-(methylamino)-2-oxoethoxy)-2-oxo-1,2-dihydroquinolin-6-yl)amino)pyrimidin-2-yl)piperidin-4-yl)-1H-1,2,3-triazol-1-yl)-4-oxo-6,9,12-trioxa-3-azatetradecanoyl)-4-hydroxy-N-((S)-1-(4-(4-methylthiazol-5-yl)phenyl)ethyl) pyrrolidine-2-carboxamide] | – | – | DC50: 10 to 50 nM
15 | CNC(=O)COc1cc2cc(Nc3nc(N4CCC(OCCOCCOCCOCCOCCOc5ccc6c(c5)CN(C5(C)CCC(=O)NC5=O)C6=O)CC4)ncc3Cl)ccc2n(C)c1=O (centres unmarked) [compound 84, 2-((6-((5-chloro-2-(4-((14-((2-(3-methyl-2,6-dioxopiperidin-3-yl)-1-oxoisoindolin-5-yl)oxy)-3,6,9,12-tetraoxatetradecyl)oxy)piperidin-1-yl)pyrimidin-4-yl)amino)-1-methyl-2-oxo-1,2-dihydroquinolin-3-yl)oxy)-N-methylacetamide] | – | – | DC50: 10 to 50 nM
16 | CCOc1cc(N2CCC(CN3CCN(c4ncc(Cl)c(Nc5ccc6c(c5)cc(OCC(=O)NC)c(=O)n6C)n4)CC3)CC2)ccc1C(=O)NC1CCC(=O)NC1=O (centres unmarked) [compound 344, 4-[4-({4-[5-chloro-4-({1-methyl-3-[(methylcarbamoyl)methoxy]-2-oxo-1,2-dihydroquinolin-6-yl}amino)pyrimidin-2-yl]piperazin-1-yl}methyl)piperidin-1-yl]-N-(2,6-dioxopiperidin-3-yl)-2-ethoxybenzamide] | < 50% | < 10 nM | –
17 | CNC(=O)COc1cc2cc(Nc3nc(N4CCC(OCCOCCCOCCCOc5ccc6c(c5)CN(C5CCC(=O)NC5=O)C6=O)CC4)ncc3Cl)ccc2n(C)c1=O (centres unmarked) [compound 147, 2-((6-((5-chloro-2-(4-(2-(3-(3-((2-(2,6-dioxopiperidin-3-yl)-1-oxoisoindolin-5-yl)oxy)propoxy)propoxy)ethoxy)piperidin-1-yl)pyrimidin-4-yl)amino)-1-methyl-2-oxo-1,2-dihydroquinolin-3-yl)oxy)-N-methylacetamide] | – | – | DC50: > 100 nM
18 | CNC(=O)COc1cc2cc(Nc3nc(N4CCC(CN5CC6(CCN(c7cccc(C(=O)NC8CCC(=O)NC8=O)c7F)CC6)C5)CC4)ncc3Cl)ccc2n(C(C)C)c1=O (centres unmarked) [compound 440, 3-[2-({1-[5-chloro-4-({3-[(methylcarbamoyl)methoxy]-2-oxo-1-(propan-2-yl)-1,2-dihydroquinolin-6-yl}amino)pyrimidin-2-yl]piperidin-4-yl}methyl)-2,7-diazaspiro[3.5]nonan-7-yl]-N-(2,6-dioxopiperidin-3-yl)-2-fluorobenzamide] | ≥ 70% | < 10 nM | –
